Experimental data published in patent US7700101B2, “Reagents and method for modulating Dkk-mediated interactions” (Wyeth, priority 2001, dated 2010).

Experiments:
LRP5 = target: T1, LRP5 (Homo sapiens, UniProt O75197); test: Cell-based TCF reporter high-throughput assay, LRP5 cDNA; settings: U2OS cells, Wnt1 or Wnt3a/Wnt1 co-transfected, FIG. 20
T1 construct: Site-directed mutants of LRP5 were generated in the full-length human LRP5 cDNA; expressed in transfected cells; host or cells: HOB-03-CE6 osteoblastic cells; U2OS osteosarcoma cells; HEK293
T1 sequence (O75197 32-1615): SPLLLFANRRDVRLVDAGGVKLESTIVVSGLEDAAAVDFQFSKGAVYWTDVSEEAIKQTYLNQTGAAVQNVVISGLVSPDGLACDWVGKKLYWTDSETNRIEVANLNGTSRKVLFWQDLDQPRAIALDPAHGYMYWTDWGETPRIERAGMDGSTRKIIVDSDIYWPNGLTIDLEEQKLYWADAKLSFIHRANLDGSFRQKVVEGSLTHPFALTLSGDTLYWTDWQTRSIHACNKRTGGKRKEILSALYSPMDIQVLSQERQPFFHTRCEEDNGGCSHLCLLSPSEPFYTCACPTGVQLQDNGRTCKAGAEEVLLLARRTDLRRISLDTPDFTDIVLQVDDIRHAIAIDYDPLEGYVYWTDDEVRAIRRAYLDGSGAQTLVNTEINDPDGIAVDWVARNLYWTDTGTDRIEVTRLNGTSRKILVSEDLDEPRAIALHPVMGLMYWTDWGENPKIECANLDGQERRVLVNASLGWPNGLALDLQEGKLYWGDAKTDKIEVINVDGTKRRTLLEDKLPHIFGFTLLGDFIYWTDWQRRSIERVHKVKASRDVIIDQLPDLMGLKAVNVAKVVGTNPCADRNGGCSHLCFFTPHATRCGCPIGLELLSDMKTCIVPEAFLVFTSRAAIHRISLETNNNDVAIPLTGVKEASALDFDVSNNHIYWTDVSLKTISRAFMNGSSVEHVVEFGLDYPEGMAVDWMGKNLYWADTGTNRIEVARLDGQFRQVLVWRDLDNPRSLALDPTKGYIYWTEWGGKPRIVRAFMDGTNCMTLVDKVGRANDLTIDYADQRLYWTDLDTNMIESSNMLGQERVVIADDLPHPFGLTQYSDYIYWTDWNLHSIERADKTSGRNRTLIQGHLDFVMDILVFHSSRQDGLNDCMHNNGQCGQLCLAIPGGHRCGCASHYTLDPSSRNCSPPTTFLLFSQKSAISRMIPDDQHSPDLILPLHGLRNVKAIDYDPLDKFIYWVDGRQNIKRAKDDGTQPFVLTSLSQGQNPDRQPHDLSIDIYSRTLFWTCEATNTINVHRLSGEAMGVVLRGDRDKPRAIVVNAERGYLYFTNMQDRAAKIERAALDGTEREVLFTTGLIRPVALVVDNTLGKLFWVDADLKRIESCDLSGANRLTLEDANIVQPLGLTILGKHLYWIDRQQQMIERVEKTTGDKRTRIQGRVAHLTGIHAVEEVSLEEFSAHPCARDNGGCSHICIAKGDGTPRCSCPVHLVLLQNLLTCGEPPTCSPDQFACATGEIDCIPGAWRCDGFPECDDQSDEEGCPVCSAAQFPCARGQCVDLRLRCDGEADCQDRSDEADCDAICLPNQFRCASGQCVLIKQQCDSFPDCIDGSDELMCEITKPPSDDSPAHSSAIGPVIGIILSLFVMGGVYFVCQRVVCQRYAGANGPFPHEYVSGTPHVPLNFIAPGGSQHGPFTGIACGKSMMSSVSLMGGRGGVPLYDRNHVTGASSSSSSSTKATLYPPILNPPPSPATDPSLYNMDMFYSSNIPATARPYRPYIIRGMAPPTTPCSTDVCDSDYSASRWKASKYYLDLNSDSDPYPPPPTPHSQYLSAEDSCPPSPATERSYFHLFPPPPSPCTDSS
Source text: To develop a high throughput assay, the TCF-luciferase assay described in Example 7 was modified utilizing low level expression of endogenous LRP5/6 in U2OS and HEK293 cells. However, HOB-03-CE6 cells and any other cells which show a differential response to Dkk depending on whether LRP5, LRP6 or HBM are expressed. Using U2OS (human osteosarcoma) and HEK293 (ATCC) cells, the TCF-luciferase and tk-Renilla reporter element constructs were co-transfected along with Wnt3a/1 and Dkk. Wnt3a alone, by using endogenous LRP5/6, was able to stimulate TCF reporter gene activation. When Dkk, is co-transfected with Wnt3a/Wnt 1 and reporters (TCF-luci and tk-Renilla), DEkk represses reporter element activity. In addition, the TCF-luci signal is activated by Wnt3a/Wnt1 can be repressed by the addition of Dkk-enriched conditioned media to the cells containing Wnt3a/Wnt1 and reporters.
The Dkk-mediated repression of the reporter is dependent upon the concentration of transfected Dkk cDNA or on the amount of Dkk-conditioned media added. In addition, the Dkk-mediated reporter suppression can be altered by the co-transfection of LRP5, LRP6, and HBM cDNAs in the U2OS or HEK293 cells. In general, U2OS cells show greater sensitivity to Dkk-mediated reporter suppression than that in HEK-293 cells. […]

canonical Wnt pathway = test: Xenopus embryo assay, hDkk-1 dose-response (enlarged anterior structures); type: in vivo; settings: 250 pg/embryo hDkk-1 RNA; FIG. 10
Method: (§1) mRNA for microinjection into Xenopus embryos is generated by in vitro transcription using the CDNA constructs in the pCS2^+ vector described above as template. RNA is synthesized using the Ambion mMessage mMachine high yield capped RNA transcription kit (Cat. #1340) following the manufacturer's specifications for the Sp6 polymerase reactions. RNA products were brought up to a final volume of 50 μl in sterile, glass-distilled water and purified over Quick Spin-Columns for Radiolabelled RNA Purification G50-Sephadex (Roche, Cat. #1274015) following the manufacturer's specifications. The resulting eluate was finally extracted with phenol:chloroform:isoamyl alcohol and isopropanol precipitated using standard protocols (Sambrook et al., 1989). Final RNA volumes were approximately 50 μl. RNA concentration was determined by absorbance values at 260 nm and 280 nm. RNA integrity was visualized by ethidium bromide staining of denaturing (formaldehyde) agarose gel electrophoresis (Sambrook et al., 1989). Various amounts of RNA (2 pg to 1 ng) are injected into the ventral blastomere of the 4- or 8-cell Xenopus embryo. These protocols are described in Moon et al., Technique-J. of Methods in Cell and Mol. Biol. 1: 76-89 (1989), and Peng, Meth. Cell. Biol. 36: 657-62 (1991). […]

LRP5 LBD = test: Yeast-2 hybrid interaction trap LRP5 LBD-LexA / Gal4AD-Dkk; type: binding; settings: LRP5LBD-LexA bait and Gal4AD-Dkk prey
Chain of LRP5 LBD (as listed by the source): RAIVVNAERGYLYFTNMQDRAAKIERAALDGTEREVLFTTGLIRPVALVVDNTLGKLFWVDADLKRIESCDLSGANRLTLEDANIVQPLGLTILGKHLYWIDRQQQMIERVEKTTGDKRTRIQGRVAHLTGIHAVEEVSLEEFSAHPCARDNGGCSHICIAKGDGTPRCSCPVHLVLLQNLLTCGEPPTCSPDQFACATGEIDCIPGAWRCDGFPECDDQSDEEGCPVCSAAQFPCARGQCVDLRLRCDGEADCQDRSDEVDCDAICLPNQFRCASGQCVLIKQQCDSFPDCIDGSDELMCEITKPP
Source text: Small molecule inhibitors (or partial inhibitors) of the Dkk-LRP interaction may be an excellent osteogenic therapeutic. One way to investigate this important protein-protein interaction is using Y2H techniques substantially as described above and as is well known in the art. […] This interaction is quantitated using a reporter element known in the art, e.g., LacZ or luciferase, which is only activated when bait and prey interact. The Y2H assay is used to screen for compounds which modulate the LRP-Dkk interaction. Such a modulation would be visualized by a reduction in reporter element activation signifying a weaker or disrupted interaction, or by an enhancement of the reporter element activation signifying a stronger interaction. Thus, the Y2H assay can be used as a high-throughput screening technique to identify compounds which disrupt or enhance Dkk interaction with LRP5/LRP6/HBM, which may serve as potential therapeutics.
For example, the Interaction Trap methodology can be used as follows. […] With the LRP5LBD-LexA bait and the Gal4AD-Dkk prey, over a 20-fold activation of a lacZ reporter (under the control of a single LexA operator) was detected over the background. […] As a result, small molecules may be identified that modulate this interaction between LRP and Dkk.

[1] = system: HBM-mediated Wnt signaling; test: Xenopus embryo assay, hDkk-1 modulation of HBM+Wnt5a signaling; type: in vivo; settings: hDkk-1 250 pg, FIG. 11
Method: as §1

canonical Wnt signaling = settings: Bafico et al.; Dkk-1 added at 30 pM; cited from earlier work
[2] = system: Zmax/LRP5-mediated Wnt signaling; test: Xenopus embryo assay, hDkk-1 modulation of Zmax/LRP5+Wnt5a signaling; type: in vivo; settings: hDkk-1 250 pg, FIG. 11
Method: as §1

- Dkk-mediated repression of LRP5 signaling (TCF reporter) (LRP5): represses
- Dkk-mediated repression of LRP5 signaling (TCF reporter) (LRP5; listed as Dkk1): moderate
Substance: Dkk-1: Dickkopf-1 protein, antagonist of the Wnt pathway; expressed from human cDNA (RNA or plasmid)
- embryos displaying enlarged anterior structures (big heads) (canonical Wnt pathway): over 90%
- activation of lacZ reporter over the background (LRP5 LBD): > 20 fold
- repression of HBM-mediated Wnt signaling [1]: unable to repress
- functional consequence of Dkk-1/LRP6 interaction on canonical Wnt signaling (canonical Wnt signaling): repression of the canonical Wnt signaling
- repression of Zmax/LRP5-mediated Wnt signaling [2]: repressed
